Legend:
[1] = tested on: cultured hippocampal neurons; type: cell-based, rat
Protocol: The dequenching response evoked by bath-applied FCCP (2 μM) in neurons from chloramphenicol-treated or control cultures was assessed. […] Nevertheless, it was noted that the intracellular solution used for all whole-cell recordings contained 2 mM Mg-ATP, so that the level of intracellular ATP was equal in all cells throughout the experiments.

[2] = tested on: Src association with the NMDAR complex; test: co-immunoprecipitation of Src with the NMDAR complex in cultured hippocampal neurons; settings: 50 μg/ml, 48 hours
[3] = tested on: ND2; test: immunoblots of total soluble protein from chloramphenicol-treated hippocampal neurons, ND2; settings: 50 μg/ml, 48 hours treatment
[4] = tested on: 2.5% formalin-induced flinching or biting/licking behaviors; test: formalin test (inflammatory pain); type: in vivo, rat; settings: 0.1 pmol intravenously 45 minutes before testing; compared to HIV-Tat alone and saline; over an hour
Protocol: Male Sprague-Dawley rats 150-200 g were used for all experiments. Rats were housed in pairs, maintained on a 12/12 hour light/dark cycle, and allowed free access to food and water. All experiments were conducted during 10 am and […]. Peptide Src40-49Tat (TSUDAPI-1; SEQ ID NO:2) or Tat alone (amino acid residues 1-11 of SEQ ID NO:2) was dissolved in sterilized saline. Peptide or saline was injected intravenously at a volume 1 ml/Kg into rat's tail 45 minutes before behavioral testing. Injections were done under brief halothane anesthesia and rats were returned to the cages after injections. The formalin test was performed as previously described (Liu et al. European Journal of Pharmacology 408(2):143-152 2000). Rats were placed in a plexiglass observation chamber for an initial 20 minutes to allow acclimatization to the testing environment. Formalin 2.5% was injected subcutaneously in a volume of […] into the plantar aspect of the hind paw. Following injections, rats were returned to the observation chamber and monitored for flinching behaviors (lifting, shaking and overt flinching with a ripple over the haunch) and biting/licking time. […] Recorded episodes were not corrected, thus values represent about half of the total behaviors expressed. FIGS. 7A-D show the effect of Src40-49Tat (0.1 pmol) on 2.5% formalin induced flinching or biting/licking behaviors. […]

[5] = tested on: NR2B subunit of NMDA receptors; test: NR2B tyrosine phosphorylation after formalin injection; type: in vivo; settings: intrathecal administration; 60 minutes post-injection of formalin
Protocol: It can be seen that by 60 minutes post-injection of formalin, tyrosine phosphorylation of the NR2B subunit increases.

[6] = tested on: cuff-induced tactile allodynia; test: cuff implantation tactile allodynia, paw withdrawal threshold; type: in vivo, mice
Excerpt: Pain induced by cuff implantation, in a laboratory animal such as a rat or mouse, is an art-accepted model of neuropathic pain. Generally, in cuff implantation a nerve root in the sciatic nerve leading to a hind paw is tied off by surgical implantation of a “cuff”, for example, a polyethylene ring. Over a period of time the nerve degenerates and a neuropathic pain pattern develops. A control is created by subjecting another group of animals to “sham surgery”, a procedure wherein the animals receive the same type of surgery as cuff implantation without the physical implantation of the cuff. After a period of time, the paw is stimulated by a series of filaments or exposure to a small amount of moderate heat. Pain is measured by observation of “paw withdrawal”, in general, if the animal lifts the paw and the time it takes to do so. Typically, an animal not experiencing neuropathic pain will not respond to the stimuli. When testing using filaments, threshold is defined in terms of force. […] This testing method is described in the art; Ren Physiological Behavior 67:711-716 1999 and Guo et al. The Journal of Neuroscience 22(14):6208-6217 2002.
In this experiment, tactile allodynia was induced in a group of mice by cuff implantation and symptoms were observed as early as day 3 post-surgery. Allodynia was allowed to fully develop at 8-10 days post-surgery before the “paw withdrawal” tests were performed. A group of mice received an intrathecal (introduced into the space under the arachnoid membrane of the brain or spinal cord) injection of 0.02 pmol of Src40-49Tat (TSUDAPI-1, SEQ ID NO:2), a second group of mice received an intrathecal injection of 0.02 pmol Scramble Src40-49Tat and a third group of mice received an intrathecal injection of saline. “Scramble Src40-49Tat” refers to TSUDAI-1 (SEQ ID NO:2) having a “scrambled” sequence, i.e. having amino acid residues out of order from the normal. Green represents Src40-49Tat (TSUDAPI-1, SEQ ID NO:2), grey represents Scramble Src40-49Tat and red represents saline. […] The reversal was significant at more than 5 hours post injection, with PWT 6.03±1.45 g (Src40-49Tat) versus 1.7±0.47 g (scrambled Src40-49Tat)(p<0.05).
Another group of mice received an intravenous injection of 10 pmol/g of Src40-49Tat (TSUDAPI-1, SEQ ID NO:2) and a second group of mice received an intravenous injection of saline. Green represents Src40-49Tat (TSUDAPI-1, SEQ ID NO:2) and red represents saline. […] The anti-allodynic effect of the peptide (SEQ ID NO:2) peaked at 2 hours following injection, with PWT 9.28±2.55 g (Src40-49Tat) versus 1.95±0.617 g (saline) (p<0.05).

[7] = tested on: NR2B subunit; test: nerve-injury induced phosphorylation of NR2B in Src kinase null mice; type: in vivo
[8] = tested on: NMDA receptor NR2B subunits; test: NR2B tyrosine phosphorylation in spinal cord dorsal horn of cuffed rats; type: in vivo, rat; settings: intrathecal injection of 0.02 pmol
Excerpt: This graph represents quantification of band (from western blots) density in three experiments.

[9] = tested on: cuff-induced allodynia; test: cuff-induced allodynia in wild-type and Src kinase null mice, paw withdrawal threshold; type: in vivo; settings: 100 pmol intravenous injection
Excerpt: Pain induced by cuff implantation, in a laboratory animal such as a rat or mouse, is an art-accepted model of neuropathic pain. Generally, in cuff implantation a nerve root in the sciatic nerve leading to a hind paw is tied off by surgical implantation of a “cuff”, for example, a polyethylene ring. Over a period of time the nerve degenerates and a neuropathic pain pattern develops. A control is created by subjecting another group of animals to “sham surgery”, a procedure wherein the animals receive the same type of surgery as cuff implantation without the physical implantation of the cuff. After a period of time, the paw is stimulated by a series of filaments or exposure to a small amount of moderate heat. Pain is measured by observation of “paw withdrawal”, in general, if the animal lifts the paw and the time it takes to do so. Typically, an animal not experiencing neuropathic pain will not respond to the stimuli. When testing using filaments, threshold is defined in terms of force. […] This testing method is described in the art; Ren Physiological Behavior 67:711-716 1999 and Guo et al. The Journal of Neuroscience 22(14):6208-6217 2002. Another experiment was performed to compare cuff-induced allodynia in wild-type mice to Src kinase null mice (Src kinase knock-out mice). The PWT was tested in the mice prior to surgery. […]

[10] = intravenous injection of 10 pmol/g

Row | Compound | functioning of the neurons [1] | co-immunoprecipitation of Src with the NMDAR complex [2] | level of ND2 in the cultures reduced by [3] | pain behaviors in the formalin test [4] | formalin-induced increase of NR2B tyrosine phosphorylation [5] | PWT ([6]; intrathecal 0.02 pmol, more than 5 hours post injection) | onset of the reversal effect ([6]; intrathecal injection of 0.02 pmol) | reversal of allodynia ([6]; intrathecal injection of 0.02 pmol, 8-10 days post-surgery) | PWT ([6]; intravenous 10 pmol/g, 2 hours following injection) | onset of the reversal effect [6, 10] | reversal of allodynia [6, 10] | time of peak anti-allodynic effect following injection [6, 10] | phosphorylation of NR2B subunits [7] | increase in tyrosine phosphorylation of NR2B subunits in spinal cord dorsal horn [8] | PWT in null mice ([9]; Src kinase null mice) | PWT after treatment ([9]; wild-type mice, from 0.008±0.0 g before)
1 | O=C(N[C@H](CO)[C@H](O)c1ccc([N+](=O)[O-])cc1)C(Cl)Cl [chloramphenicol] | did not detectably compromise | suppress | more than 95% |  |  |  |  |  |  |  |  |  |  |  |  | 
2 | Src40-49Tat: SUDAPI-1 combined with the carrier peptide, HIV-Tat (SEQ ID NO:2) (YGRKKRRQRRRKPASADGHR; listed as Homo sapiens) |  |  |  | reduce pain behaviors | significantly reduced | 6.03 ± 1.45 g | as early as one hour | significantly reversed allodynia | 9.28 ± 2.55 g | as early as one hour | significantly reversed allodynia | 2 h | did not further decrease | significantly reversed | did not further increase | 0.23 ± 0.05 g

Reference: patent publication US8003609B2, “Method for ameliorating pain by modification of NMDA receptors through inhibition of Src” (The Hospital for Sick Children, priority 2004, dated 2011)
